Reference: patent US5489613A, “Carbacyclin derivatives, process for their preparation and compositions containing them” (priority 1983, dated 1996)
Values after ≈ are worked out from the molar mass of the structure shown.

How the values were obtained:
Format in all cases: cell-based
[1] = tested on: platelet aggregation (platelet-rich plasma); test: Inhibition of platelet aggregation (ADP-induced), Born's turbidimetric method, human blood; settings: 2 min, read-out: Concentration (ng/ml) for 50% inhibition, human blood
Procedure: (§1) Platelet aggregation was determined by the following means: 0.05 ml of a test liquid (containing, in various concentrations, the compound whose inhibitory effect was to be tested) was added to 1 ml of this platelet-rich plasma; two minutes after the addition, 0.2 ml of a liquid containing adenosine diphosphate at a concentration of 5 μM was added; the increase in light transmission at 600 nm was determined by means of a platelet aggregometer manufactured by Bryston Co. Limited.

[2] = tested on: platelet aggregation (platelet-rich plasma); test: Inhibition of platelet aggregation (ADP-induced), Born's turbidimetric method, rabbit blood; settings: Oryctolagus cuniculus, 2 min, read-out: Concentration (ng/ml) for 50% inhibition, rabbit blood
Procedure: as §1

blood platelets = test: Inhibition of aggregation of blood platelets (thrombocyte agglutination), stated in words
[3] = human platelet-rich plasma, adenosine diphosphate 5 μM, 2 min after addition of test liquid, 600 nm
[4] = rabbit platelet-rich plasma, adenosine diphosphate 5 μM, 2 min after addition of test liquid, 600 nm

Row | Compound | IC50 [1, 3] | IC50 [2, 4] | IC50 ([1]; Homo sapiens, Platelet) | IC50 ([2]; Platelet) | ability to inhibit aggregation of blood platelets (blood platelets)
1 | C=CCCCC(C)[C@H](O)/C=C/[C@@H]1[C@H]2CC(CCCCC(=O)O)=C[C@H]2C[C@H]1O (stereo partly drawn) [Compound 60, 3-(4-Carboxybutyl)-6β-(3α-hydroxy-4-methylnona-1,8-dienyl)-7α-hydroxy-cis-bicyclo[3,3,0]oct-2-ene] | 1.8 ng/mL (≈ 4.78 nM) | 1.1 ng/mL (≈ 2.92 nM) |  |  | 
2 | CC#CCC(C)[C@H](O)/C=C/[C@@H]1[C@H]2CC(CCCCC(=O)O)=C[C@H]2C[C@H]1O (stereo partly drawn) [Compound 85, 3-(4-Carboxybutyl)-6β-(3α-hydroxy-4-methyloct-1-en-6-ynyl)-7α-hydroxy-cis-bicyclo[3,3,0]oct-2-ene] | 0.4 ng/mL (≈ 1.11 nM) | 3.6 ng/mL (≈ 9.99 nM) |  |  | 
3 | O=C(O)CCCCC1=C[C@H]2C[C@@H](O)[C@H](/C=C/[C@@H](O)C3CCCC3)[C@H]2C1 [Compound 90, 3-(4-Carboxybutyl)-6β-(3α-hydroxy-3-cyclopentylprop-1-enyl)-7α-hydroxy-cis-bicyclo[3,3,0]oct-2-ene] | 0.5 ng/mL (≈ 1.43 nM) | 3.7 ng/mL (≈ 10.6 nM) |  |  | 
4 | O=C(O)CCCCC1=C[C@H]2C[C@@H](O)[C@H](/C=C/[C@@H](O)C3CCCCC3)[C@H]2C1 [Compound 98, 3-(4-Carboxybutyl)-6β-(3α-hydroxy-3-cyclohexylprop-1-enyl)-7α-hydroxy-cis-bicyclo[3,3,0]oct-2-ene] | 0.9 ng/mL (≈ 2.48 nM) | 3.3 ng/mL (≈ 9.1 nM) |  |  | 
5 | O=C(O)CCCCC1=C[C@H]2C[C@@H](O)[C@H](/C=C/[C@@H](O)CC3CCCC3)[C@H]2C1 [Compound 100, 3-(4-Carboxybutyl)-6β-(3α-hydroxy-4-cyclopentylbut-1-enyl)-7α-hydroxy-cis-bicyclo[3,3,0]oct-2-ene] | 1.1 ng/mL (≈ 3.03 nM) |  |  |  | 
6 | CCCCC[C@H](O)/C=C/[C@H]1[C@H](O)CC(=O)[C@@H]1CCCCCCC(=O)O [Compound A, PGE1, reference compound] | 9.3 ng/mL (≈ 26.2 nM) | 36 ng/mL (≈ 102 nM) |  |  | 
7 | CCCCC[C@H](O)/C=C/[C@@H]1[C@H]2C/C(=C/CCCC(=O)O)C[C@H]2C[C@H]1O [Compound B, carbacyclin] |  |  | 13.3 ng/mL (≈ 37.9 nM) | 36 ng/mL (≈ 103 nM) | 
8 | CCCCC[C@H](O)/C=C/[C@@H]1[C@H]2CC(CCCCC(=O)O)=C[C@H]2C[C@H]1O [Compound C, reference compound] | 3.6 ng/mL (≈ 10.3 nM) | 5.9 ng/mL (≈ 16.8 nM) |  |  | has the ability to inhibit aggregation blood platelets
